Experimental findings from PubChem BioAssay (NCI) are described below.

The structures appear in SMILES notation.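 Results reflect a 48-hour exposure of cells in 96-well plates to compound at five concentrations. TGI: concentration producing complete growth inhibition.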

Test systems include MALME-3M melanoma; HCT-15 colon; A549 NSCLC; SR leukemia; HOP-92 NSCLC; RXF 393 renal; SNB-75 CNS; HT29 colon; TK-10 renal; SK-MEL-28 melanoma; MCF7 breast; SF-539 CNS; MDA-MB-231 breast; IGROV1 ovarian; OVCAR-5 ovarian; T-47D breast; LOX IMVI melanoma; BT-549 breast; HCT-116 colon; NCI-H522 lung.
Common to all, as to assay: NCI-60 cell line screen, 48 h

In the case of `CCN(CC)CCC(=O)c1ccc(Oc2ccccc2)cc1`, the TGI in the test with MALME-3M melanoma was 30.1 µM; in the test on HCT-15 colon, 35.6 µM; with A549 NSCLC, above 100 µM; in the test with SR leukemia, above 100 µM; with HOP-92 NSCLC, 30.1 µM; in the test on RXF 393 renal it was 36.4 µM. Further, the TGI stood at 52 µM in the test on SNB-75 CNS; 38.3 µM in the test on HT29 colon; 27.5 µM in the test with TK-10 renal; 32.5 µM in the test with SK-MEL-28 melanoma; 38.5 µM in the test on MCF7 breast; 34 µM in the test on SF-539 CNS. Further, the TGI came to 36.7 µM in the test with MDA-MB-231 breast; 33.3 µM in the test with IGROV1 ovarian; 46.4 µM in the test with OVCAR-5 ovarian; 42 µM in the test with T-47D breast; 31.3 µM in the test with LOX IMVI melanoma; 33.5 µM with BT-549 breast. In the test on HCT-116 colon, the TGI stood at 36.1 µM.
For `CC(C)c1ccc2[nH]c(O)c(C3=Nc4ccccc4C3=O)c2c1`, the TGI in the test on MALME-3M melanoma is above 100 µM; in the test with HCT-15 colon, above 100 µM; in the test with A549 NSCLC it was above 100 µM; in the test with SR leukemia, 54.5 µM; in the test with HOP-92 NSCLC, 23.4 µM; with RXF 393 renal it was 6.71 µM. Further, the TGI is 9.36 µM in the test with SNB-75 CNS; above 100 µM in the test with HT29 colon; 54.2 µM in the test with TK-10 renal; above 100 µM with SK-MEL-28 melanoma; 1.3 µM with MCF7 breast; 48 µM with MDA-MB-231 breast. The TGI was 65.8 µM in the test with IGROV1 ovarian; above 100 µM in the test on OVCAR-5 ovarian; 17.2 µM with T-47D breast; above 100 µM with LOX IMVI melanoma; 97 µM with NCI-H522 lung; 69.6 µM in the test on BT-549 breast. The compound further registered a TGI in the test on HCT-116 colon of 68 µM.
Turning to `[O-]c1c[n+](CC[n+]2cc([O-])on2)no1`, the TGI with MALME-3M melanoma, in the test with HCT-15 colon, with A549 NSCLC, with SR leukemia, with HOP-92 NSCLC and with RXF 393 renal was above 100 µM each time. The TGI in the test with SNB-75 CNS, in the test on HT29 colon, with TK-10 renal, in the test with SK-MEL-28 melanoma, in the test on MCF7 breast and in the test with MDA-MB-231 breast was above 100 µM throughout. Also, the TGI in the test with IGROV1 ovarian, with OVCAR-5 ovarian, in the test on T-47D breast, in the test with LOX IMVI melanoma, in the test with NCI-H522 lung and with BT-549 breast was above 100 µM throughout. This compound also showed a TGI in the test with HCT-116 colon above 100 µM.
With `O=Cc1ccc(-c2cccc([N+](=O)[O-])c2)s1`, the TGI in the test with HCT-15 colon, in the test with A549 NSCLC, with SR leukemia, with HOP-92 NSCLC, in the test on RXF 393 renal and in the test with SNB-75 CNS was above 100 µM throughout. Also, the TGI in the test on HT29 colon, in the test with TK-10 renal, in the test with SK-MEL-28 melanoma, in the test on MCF7 breast, in the test on SF-539 CNS and in the test with MDA-MB-231 breast was above 100 µM each time. The TGI in the test with IGROV1 ovarian, with OVCAR-5 ovarian, in the test on T-47D breast, with LOX IMVI melanoma, with NCI-H522 lung and in the test with BT-549 breast was above 100 µM in each case. In the test on HCT-116 colon, the TGI was above 100 µM.
For `CC(=O)OC[C@@H](OC(C)=O)[C@@H](OC(C)=O)[C@H]1OC[C@@H]2C[C@H]([C@H]1OC(C)=O)N(Cc1ccccc1)O2`, the TGI in the test on MALME-3M melanoma, in the test with A549 NSCLC, in the test with SR leukemia, in the test on HOP-92 NSCLC, with RXF 393 renal and in the test on SNB-75 CNS was above 100 µM throughout. For the same compound, the TGI in the test with HT29 colon, in the test with TK-10 renal, in the test on SK-MEL-28 melanoma, with MCF7 breast, in the test with SF-539 CNS and in the test with MDA-MB-231 breast was above 100 µM in each case. Besides, the TGI in the test with IGROV1 ovarian, in the test with OVCAR-5 ovarian, in the test on T-47D breast, in the test on LOX IMVI melanoma, with BT-549 breast and in the test on HCT-116 colon was above 100 µM throughout.
Consider `COc1cc(-c2oc(C=Nc3ccccc3)c([N+](=O)[O-])c2-c2ccc(O)c(OC)c2)ccc1O`, for which the TGI in the test on HCT-15 colon was 42.3 µM; in the test with A549 NSCLC, above 87.2 µM; in the test on SR leukemia, 9.8 µM; in the test with HOP-92 NSCLC, above 51.9 µM; with RXF 393 renal, 51.1 µM; in the test on SNB-75 CNS it was 64.4 µM. Moreover, the TGI is above 55.9 µM in the test with HT29 colon; 39.5 µM with TK-10 renal; 68.7 µM in the test on SK-MEL-28 melanoma; above 100 µM in the test with MCF7 breast; 42.9 µM in the test on SF-539 CNS; above 95.7 µM with MDA-MB-231 breast. For the same compound, the TGI with IGROV1 ovarian was 52.5 µM; in the test on OVCAR-5 ovarian, above 89.6 µM; in the test with T-47D breast, above 100 µM; with LOX IMVI melanoma, above 100 µM; in the test with NCI-H522 lung, 30.2 µM; with BT-549 breast, above 100 µM. Besides, in the test on HCT-116 colon, the TGI was above 68.5 µM.
For the compound `CCN1C[C@]2(C)CC[C@H](OCc3ccccc3)C34C5C[C@@H]6CC[C@](O)(C(C[C@@H]32)C14)C5[C@H]6OCc1ccccc1` (some centres not stated), the TGI with MALME-3M melanoma, in the test with HCT-15 colon, in the test with A549 NSCLC, with SR leukemia, with HOP-92 NSCLC and in the test on RXF 393 renal was above 100 µM in each case. Further, the TGI in the test on SNB-75 CNS, with HT29 colon, with TK-10 renal, with SK-MEL-28 melanoma, with MCF7 breast and with SF-539 CNS was above 100 µM in each case. The TGI in the test with MDA-MB-231 breast, in the test on IGROV1 ovarian, in the test on OVCAR-5 ovarian, with T-47D breast, in the test with LOX IMVI melanoma and in the test on BT-549 breast was above 100 µM in each case. Also, the TGI in the test on HCT-116 colon is above 100 µM.
